Test results reported in patent US20250041278A1, “TLR8 AGONIST FOR MODULATING IMMUNE RESPONSE” (The Children's Medical Center Corporation, priority 2021, published 2025).

Key:
human elderly PBMCs = test: Screen of 310 molecules for TNF production by human elderly PBMCs; format: cell-based; conditions: elderly PBMCs of 4 donors, 10% autologous plasma
Description: (§1) FIGS. 1A-1D. Discovery of PVP-179 in a human PBMC high-throughput screen. FIG. 1A: A graphical overview depicting screen approach. From a high-throughput screen previously conducted, 310 molecules were identified to be activators of either THP-1 cells (monocyte cell line) or primary human adult peripheral blood mononuclear cells (PBMCs). These 310 molecules were assembled into a stimulation plate and then applied to the PBMCs of 4 elderly donors (cultured with 10% autologous plasma). […] Z scores were averaged across all four elderly donors. The Z score and chemical structure for PVP-179 are indicated. FIG. 1C: Human adult or elderly PBMCs (cultured with 10% autologous plasma) were stimulated with PVP-179 in a two-point concentration titration manner. After 18 hours of incubation, supernatant was processed for ELISA-based measurement of TNF production. N=4 donors. FIG. 1D: As in FIG. 1C, the supernatants were collected, and 14 cytokines were measured by multiplex assay. […] N=4 donors each.
(§2) In a previous high throughput screen (HTS), a number of hit molecules were identified as potentially activating human leukocytes. […] A separate pilot screen of 9,000 of the molecules for TNF-inducing activity in adult human peripheral blood mononuclear cells (PBMCs) subsequently identified 133 molecules. […]

[1] = test system: human monocytic THP-1 cell line; test: High throughput screen in THP-1 cells (NF-kB/IRF-inducing and/or leukocyte adherence-inducing activity); format: cell-based
Description: as §1, §2

[2] = test system: human monocyte derived macrophages; test: TNF ELISA in human monocyte derived macrophages; format: cell-based; conditions: 20-24 hours
Procedure: FIGS. 4A-4D. PVP-179 activates human macrophages and dendritic cells. FIGS. 4A-4B: Murine mononuclear cells were isolated from bone marrow and induced differentiation into dendritic cells (with GM-CSF and IL-4). After 5 days of culturing, these bone-marrow-derived dendritic cells (BMDCs) were stimulated with PVP-179 or MPLA for 18 hours at indicated concentrations. The supernatants were analyzed via ELISA where each dot in the graph represents the mean production of mTNF (FIG. 4A) and mIL-6 (FIG. 4B). N=6 for PVP-179, N=3 for MPLA. Two-way Anova was performed to determine statistical significance. The comparisons shown are compared to control group (0 M PVP-179). FIGS. 4C-4D: PBMCs were isolated from blood of adult human donors. CD14+ monocytes were specifically isolated from the PBMCs and were then cultured in 10% autologous plasma and induced to differentiate into macrophages with M-CSF (FIG. 4C), or dendritic cells with GM-CSF and IL-4 (FIG. 4D). After 5 days, cells were harvested from each differentiated cell type (macrophages: Mφ; dendritic cells: MoDCs) and a 96-well plate was setup with 100,000 cells/well. Cells were then stimulated with indicated concentrations of PVP-179 or R848 (33 μM) or LPS (100 ng/mL). After 20-24 hours of incubation, supernatants were harvested and applied to TNF ELISA. N=2 donors.

null HEK cells = test: HEK-Null reporter cell line (reporter gene only); format: cell-based, human; conditions: negative control cells, even at higher concentrations
Procedure: FIGS. 3A-3E. PVP-179 is a TLR8 agonist. FIG. 3A: PVP-179 was sent to InvivoGen for PRR ligand screening service. Various cells lines were utilized to screen for PVP-179-induced ([…]) activation of TLRs, NOD1/2, RIG-I/MDA-5, Dectin-1 or Mincle receptor. The heat-map depicts percentage activity compared to the positive control for each receptor. FIG. 3B: PVP-179 induced activity (% activity compared to the positive control: CL075 at 1 μg/mL) in HEK-293 cells specifically expressing hTLR8. In brief, these cells have an NF-κB/AP-1-inducible secreted embryonic alkaline phosphatase (SEAP) reporter gene which allows monitoring of signaling via TLR8. After incubation for 16-24 hours, supernatant harvested from the cells is mixed with media containing SEAP-substrate and the optical density (OD) is measured at 650 nm using a spectrophotometer. FIG. 3C: As in FIG. 3B, HEK cells specifically expressing hTLR2, hTLR7, or hTLR8, in addition to the HEK-Null cell line carrying only the reporter gene, were stimulated with the indicated concentrations of PVP-179. […] PVP-179 activity is expressed as a percentage of NF-κB induced in the cells stimulated with TNF (positive control for each cell line). […] The supernatants were harvested after 20-24 hours and SEAP production (to assess NF-κB activity) was measured using QUANTIBlue assay. […]

CCCCn1c(/N=C/c2nc3ccccc3n2C)nc2ccccc21 [PVP-179]
TNF production, screen hit call (human elderly PBMCs): robust TNF-inducing hit
hit call in original THP-1 screen [1]: positive hit
TNF-inducing activity [2]: concentration-dependent activity
NF-κB activity in null HEK cells (null HEK cells): no activity was detected
